From US20130029942A1, “COMPOUNDS AND THERAPEUTICAL USES THEREOF” (Myrexis, Inc., priority 2003, published 2013) come the findings set out here.

For this test, the system named is T-47D cells. The test can be described thus: Caspase cascade activation / induction of apoptosis in T-47D cells (fluorogenic N-(Ac-DEVD)-N'-ethoxycarbonyl-R110 substrate). In kind it is cell-based, human. To be noted: T-47D; for EC50: Homo sapiens, T47D.
[1] abbreviates: 24 hr, read-out: T-47D (24 hr) EC50.
[2] abbreviates: 48 hr, read-out: T-47D (48 hr) EC50.

Like-named read-outs stand apart in the source and are kept apart here.

The term EC50 denotes the concentration needed to bring the measured effect to its halfway point.

As for `COc1ccc(Nc2nc(Cl)nc3cc(OC)c(OC)cc23)cc1` [Example 21, (2-Chloro-6,7-dimethoxyquinazolin-4-yl)-(4-methoxy-phenyl)-amine], the EC50 is, setting by setting: under setting [1], above 10000 nM; under setting [2], above 10000 nM.

In the case of `COc1cc(OC)c(N(C)c2nc(C)nc3ccccc23)c(OC)c1` [Example 88, (2-Methyl-quinazolin-4-yl)-(2,4,6-trimethoxy-phenyl)-methyl-amine], the EC50 under setting [1] stood at 556 nM.

For `COc1ccc(N(C)c2nc(C)nc3nccnc23)cc1` [Example 140, (4-Methoxy-phenyl)-(2-methyl-pteridin-4-yl)-methyl-amine], the EC50 under setting [1] turned out to be 27 nM.

Regarding `COC(=O)c1ccc(N(C)c2nc(Cl)nc3ccccc23)cc1` [Example 52, (2-Chloro-quinazolin-4-yl)-(4-methylcarboxyphenyl)-methyl-amine], the EC50 under setting [2] came out at 6 nM.

Consider `Cc1nc(Nc2ccc(OC(C)C)cc2)c2ccccc2n1` [Example 80, (4-Isopropoxy-phenyl)-(2-methyl-quinazolin-4-yl)-amine], for which the EC50 under setting [1] was found to be 5750 nM.

As for `COc1ccc(N(C)c2nc(N)nc3[nH]cnc23)cc1` [Example 17, N^6-(4-Methoxy-phenyl)-N^6-methyl-9H-purine-2,6-diamine], the EC50 under setting [1] was 7940 nM.

As to `CSc1nc(N(C)NC(=O)c2ccc(F)cc2)c2ccccc2n1`, the EC50 (48 hr, benzohydrazide table, read-out: T-47D (48 hr) EC50) turned out to be 290 nM. Moreover, the “T-47D (48 hr) Ratio” value (48 hr, benzohydrazide table) worked out at 13.8.

In the case of `Cc1nc(N(C)c2ccc(F)cc2)c2ccccc2n1` [Example 124, (4-Fluoro-phenyl)-(2-methyl-quinazolin-4-yl)-methyl-amine], under setting [1], the EC50 was 408 nM.

Regarding `COc1ccc(N(C)c2nc(C)nc3ccc([N+](=O)[O-])cc23)cc1` [Example 109, (4-Methoxy-phenyl)-(2-methyl-6-nitro-quinazolin-4-yl)-methyl-amine], under setting [1], the EC50 came to 274 nM.

On to `Cc1nc(N(C)c2ccncc2)c2ccccc2n1` [Example 136, (2-Methyl-quinazolin-4-yl)-(pyridin-4-yl)-methyl-amine], for which, under setting [1], the EC50 is above 10000 nM.

In the case of `Cc1nc(N(C)c2ccc(OC(C)C)cc2)c2ccccc2n1` [Example 86, (4-Isopropoxy-phenyl)-(2-methyl-quinazolin-4-yl)-methyl-amine], the EC50 under setting [1] came out at 41 nM.

For `COc1ccc(N(C)c2nc(Cl)nc3cc(C)ccc23)cc1` [Example 57, (2-Chloro-7-methyl-quinazolin-4-yl)-(4-methoxy-phenyl)-methyl-amine], under setting [2], the half-maximal effective concentration (EC50) is 432 nM.

For `COc1ccc(N(C)c2nc(Cl)nc3[nH]cnc23)cc1` [Example 51, (2-Chloro-9H-purin-6-yl)-(4-methoxy-phenyl)-methyl-amine], the EC50 under setting [2] is above 10000 nM.

As for `COc1ccc(N(C)c2nc(N3CCOCC3)nc3ccccc23)cc1` [Example 15, (4-Methoxy-phenyl)-methyl-(2-morpholin-4-yl-quinazolin-4-yl)-amine], the EC50 under setting [1] came to 56 nM and the EC50 under setting [2] was 89 nM.

`COc1cccc(N(C)c2nc(Cl)nc3ccccc23)c1OC` [Example 39, (2-Chloro-quinazolin-4-yl)-(2,3-dimethoxy-phenyl)-methyl-amine]: the EC50 under setting [1] came out at 693 nM.

Consider `COc1ccc(N(C)c2nc(C)nc3ccc(N=[N+]=[N-])cc23)cc1` [Example 111, (6-Azido-2-methyl-quinazolin-4-yl)-(4-methoxy-phenyl)-methyl-amine], for which the EC50 under setting [1] came out at 32 nM.

Consider `COc1ccc(N(C)c2nc(N(C)c3ccc(OC)cc3)c3cc(Cl)ccc3n2)cc1` [Example 61, 6-Chloro-N^2,N^4-bis-(4-methoxy-phenyl)-N^2,N^4-dimethyl-quinazoline-2,4-diamine], for which, under setting [2], the EC50 was 4050 nM.

In the case of `COc1ccc(N(C)c2nc(CN(C)C)nc3ccccc23)cc1` [Example 77, (2-Dimethylaminomethyl-quinazolin-4-yl)-(4-methoxy-phenyl)-methyl-amine], the EC50 turned out to be 700 nM under setting [1] and 2110 nM under setting [2].

With `CCOc1ccc(Nc2nc(C)nc3ccccc23)cc1` [Example 106, (4-Ethoxy-phenyl)-(2-methyl-quinazolin-4-yl)-amine], the EC50 under setting [1] was above 10000 nM.

As to `COc1ccc(N(C)c2nc(N=[N+]=[N-])nc3ccccc23)cc1` [Example 121, (2-Azido-quinazolin-4-yl)-(4-methoxy-phenyl)-methyl-amine], the EC50 under setting [1] was found to be 30 nM.

On to `COc1ccc(N(C)c2nc(N(C)c3ccc(OC)cc3)c3c(Cl)cccc3n2)cc1` [Example 63, 5-Chloro-N^2,N^4-bis-(4-methoxy-phenyl)-N^2,N^4-dimethyl-quinazoline-2,4-diamine], for which, under setting [2], the EC50 is 427 nM.

On to `COc1cc2nc(Cl)nc(N(C)c3ccc(C)cc3)c2cc1OC` [Example 22, (2-Chloro-6,7-dimethoxyquinazolin-4-yl)-(4-methyl-phenyl)-methyl-amine], for which the concentration for a half-maximal effect (EC50) is, setting by setting: under setting [1], above 10000 nM; under setting [2], above 10000 nM.

`COc1ccc(N(C)c2nc(C)nc3cccc(OC)c23)cc1` [Example 91, (5-Methoxy-2-methyl-quinazolin-4-yl)-(4-methoxy-phenyl)-methyl-amine]: under setting [1], the EC50 was found to be 4 nM.

With `CN(c1ccc([N+](=O)[O-])cc1)c1nc(Cl)nc2ccccc12` [Example 4, (2-Chloro-quinazolin-4-yl)-(4-nitro-phenyl)-methyl-amine], under setting [1], the EC50 came out at 872 nM.

Take `CCN(c1ccc(OC)cc1)c1nc(Cl)nc2ccccc12` [Example 40, (2-Chloro-quinazolin-4-yl)-ethyl-(4-methoxy-phenyl)-amine]: the EC50 under setting [2] was determined as 47 nM.

Regarding `CN(c1ccccc1)c1nc(N(C)c2ccccc2)c2ccccc2n1` [Example 18, N^2,N^4-Dimethyl-N^2,N^4-diphenyl-quinazoline-2,4-diamine], the EC50 is, setting by setting: under setting [1], above 10000 nM; under setting [2], above 10000 nM.

As to `Cc1nc(N(C)c2ccc(N)cc2Br)c2ccccc2n1` [Example 104, (4-Amino-2-bromo-phenyl)-(2-methyl-quinazolin-4-yl)-methyl-amine], the EC50 under setting [1] is 134 nM.

On to `Cc1nc(N(C)c2ccc([N+](=O)[O-])cc2)c2ccccc2n1` [Example 100, (2-Methyl-quinazolin-4-yl)-(4-nitro-phenyl)-methyl-amine], for which the EC50 under setting [1] was 474 nM.

As to `COc1ccc(N(C)c2nc(Cl)nc3cccc(Cl)c23)cc1` [Example 90, (2,5-Dichloro-quinazolin-4-yl)-(4-methoxy-phenyl)-methyl-amine], the EC50 under setting [1] came to 2 nM.

As for `COc1ccc(Nc2nc(C)nc3ccccc23)nc1` [Example 137, (5-Methoxy-pyridin-2-yl)-(2-methyl-quinazolin-4-yl)-amine], under setting [1], the EC50 is above 10000 nM.

In the case of `CN(c1ccc2c(c1)OCO2)c1nc(Cl)nc2ccccc12` [Example 67, (2-Chloro-quinazolin-4-yl)-(3,4-methylenedioxyphenyl)-methyl-amine], the EC50 under setting [2] came to 38 nM.

Regarding `COc1ccccc1Nc1nc(Cl)nc2ccccc12` [Example 33, (2-Chloro-quinazolin-4-yl)-(2-methoxy-phenyl)-amine], the EC50 under setting [2] is above 10000 nM.

For the compound `COc1ccc(N(C)c2nc(SC)nc3ccccc23)cc1` [Example 120, (2-Methylthio-quinazolin-4-yl)-(4-methoxy-phenyl)-methyl-amine], the EC50 under setting [1] worked out at 8 nM.

Take `Cc1nc(N(C)c2ccc(N=[N+]=[N-])cc2)c2ccccc2n1` [Example 102, (4-Azido-phenyl)-(2-methyl-quinazolin-4-yl)-methyl-amine]: the EC50 stood at 5 nM under setting [1] and 16 nM under setting [2].

Take `COc1ccc(N(C)c2nc(Cl)nc3c(C)cccc23)cc1` [Example 59, (2-Chloro-8-methyl-quinazolin-4-yl)-(4-methoxy-phenyl)-methyl-amine]: the EC50 under setting [2] came to 11 nM.

On to `COc1ccc(N(c2nc(Cl)nc3ccccc23)C(C)C)cc1` [Example 37, (2-Chloro-quinazolin-4-yl)-isopropyl-(4-methoxy-phenyl)-amine], for which the EC50 under setting [1] was 2690 nM.

On to `COc1ccc(N(C)c2nc(C)nc3ccccc23)nc1` [Example 138, (5-Methoxy-pyridin-2-yl)-(2-methyl-quinazolin-4-yl)-methyl-amine], for which the EC50 under setting [1] stood at 15 nM.

In the case of `COc1ccc(N(C)c2nc(Cl)nc3cccc(C)c23)cc1` [Example 58, (2-Chloro-5-methyl-quinazolin-4-yl)-(4-methoxy-phenyl)-methyl-amine], under setting [2], the EC50 stood at 1 nM.

Consider `Cc1nc(N(C)c2ccc(N)cc2)c2ccccc2n1` [Example 101, (4-Amino-phenyl)-(2-methyl-quinazolin-4-yl)-methyl-amine], for which the EC50 under setting [1] worked out at 175 nM.

As to `COc1ccc(N(C)c2nc(C)nc3cc(N)ccc23)cc1` [Example 113, (7-Amino-2-methyl-quinazolin-4-yl)-(4-methoxy-phenyl)-methyl-amine], the EC50 under setting [1] was 735 nM.

As for `Cc1nc(Nc2ccc(O)cc2)c2ccccc2n1` [Example 127, (4-hydroxy-phenyl)-(2-methyl-quinazolin-4-yl)-amine], the EC50 under setting [1] is above 10000 nM.

`Cc1nc(N(C)c2ccc(N(C)C)cc2)c2ccccc2n1` [Example 105, (4-Dimethylamino-phenyl)-(2-methyl-quinazolin-4-yl)-methyl-amine]: the EC50 under setting [1] came to 2 nM.

On to `CN(c1ccc(OC(F)(F)F)cc1)c1nc(Cl)nc2ccccc12` [Example 5, (2-Chloro-quinazolin-4-yl)-(4-trifluoromethoxy-phenyl)-methyl-amine], for which, under setting [1], the EC50 was 24 nM.

Regarding `COc1cnc(N(C)c2nc(C)nc3ccccc23)cn1` [Example 126, (5-Methoxy-pyrazin-2-yl)-(2-methyl-quinazolin-4-yl)-methyl-amine], the EC50 under setting [1] is 55 nM.

Turning to `COc1cnc(Nc2nc(C)nc3ccccc23)nc1` [Example 141, (5-Methoxy-pyrimidin-2-yl)-(2-methyl-quinazolin-4-yl)-amine], the EC50 under setting [1] is above 10000 nM.

As for `C[C@H]1CC[C@H](Nc2nc(Cl)nc3ccccc23)CC1` [Example 131, (2-chloro-quinazolin-4-yl)-(trans-4-methylcyclohexyl)-amine], the EC50 under setting [1] is above 10000 nM. The “T-47D (24 hr) Ratio (caspase activity, net RFU compound / control)” value (24 hr) is recorded as 1.2.
